Data taken from patent US7663000B2, “Quinoneimines of malonic acid diamides” (A-Viral ASA, priority 2003, dated 2010).

Assay: Stability in aqueous solution, analysed by 1H NMR
Type: physicochemical
From the text: The product of Example 2 (PHBPQ, N-phenyl-2-hydroxy-2 butyl 1,3-propanal quinoneimine) was examined for stability in aqueous solution, followed by analysis by ^1H NMR spectroscopy.

Q: With “N-phenyl-2-hydroxy-2 butyl 1,3-propanal quinoneimine [PHBPQ]” as the substance, how does the “stability compared with 4-OH-OPB” value (pH 7.4) read?
A: more stable at pH 7.4 than 4-OH-OPB

Q: What about the “re-conversion into 4-OH-OPB” value (when the solution was acidified) of the same substance?
A: not re-converted into 4-OH-OPB
